According to patent publication US5665760A, “Lyophilized thioxanthenone antitumor agents” (priority 1995, dated 1997):
Counter-ions that a name gives are not always drawn.

How the values were obtained:
[1] = test system: colon adenocarcinoma #38; assay: antitumor activity in mice against colon adenocarcinoma #38; type: in vivo
Description: (§1) Representative examples of the invention were tested for antitumor activity in mice according to the following procedure:
(§2) The animals were pooled, implanted subcutaneously with 30 to 60 mg tumor fragments by 12-gauge trocar, and again pooled before unselective distribution to the various treatment and control groups. For early-stage treatment, chemotherapy was started within 1 to 5 days after tumor implantation while the number of cells was relatively small (10^7 to 10^8 cells). For advanced-stage treatment, chemotherapy was delayed until the tumor became relatively large (200 to 300 mg in size). A 300-mg tumor contains approximately 3×10^8 total cells. […] Tumors were measured with a caliper weekly (or twice weekly for the more rapidly growing tumors). Mice were sacrificed when their tumors reached 1500 mg (i.e., before they can cause the animal discomfort). Tumor weights were estimated from two-dimensional measurements.
(§3) The treatment and control groups were measured when the control group tumors reached approximately 700 to 1200 mg in size (Median of Group). The median tumor weight of each group was determined (including zeros). […] A T/C value <10% is considered to indicate highly significant antitumor activity.
(§4) The results are shown in Table I for pancreatic ductal adenocarcinoma #03 and in Table 2 for colon adenocarcinoma #38.

[2] = test system: pancreatic ductal adenocarcinoma #03; assay: antitumor activity in mice against pancreatic ductal adenocarcinoma #03 (Panc 03); type: in vivo
Description: as §1, §2, §3, §4

[3] = Table 2, i.v., total dose mg/kg by Example: 2:600, 5:960, 6:132, 7:840, 16(a):1000, 18(e):180
[4] = Table 2, i.v., total dose mg/kg by Example: 6:82, 16(a):690, 18(e):120
[5] = Table 1, average body weight 25 g, total doses as in E1
[6] = Table 2, i.p., total dose mg/kg by Example: 10:340, 11:518
[7] = Table 2, p.o., total dose mg/kg by Example: 10:460, 11:885
[8] = Table 2, p.o., total dose mg/kg by Example: 10:740, 11:1709

Compound | T/C [2] [%] | Weight Loss [2, 5] | Drug Deaths ([2]; Table 1, total doses as in E1) | Weight Loss ([2]; mouse, in vivo) [g] | other results
CCN(CC)CCNc1ccc(CNC(=O)C(F)(F)F)c2sc3ccccc3c(=O)c12 [16(a), N-[[1-[[2-(Diethylamino)ethyl]amino]-9-oxothioxanthen-4-yl]methyl]-trifluoroacetamide] | 21 | +0.8 g | 0 | – | Drug Deaths [1, 3]: 0; Drug Deaths [1, 4]: 0; Weight Loss [1, 4]: 1.5 g; Weight Loss ([1]; mouse, in vivo, iv): 1.2 g
CCN(CC)CCCNc1ccc(CNC)c2sc3ccccc3c(=O)c12 [17(f), 1-[[3-(Diethylamino)propyl]amino]-4-(methylaminomethyl)thioxanthen-9-one dihydrochloride 3/2 hydrate] | 17 | – | 0 | 2.0 | –
CN(C)CCNc1ccc(CN)c2sc3ccccc3c(=O)c12 [18(e), 4-(Aminomethyl)-l-[[2-dimethylamino)ethyl]amino]-9-oxothioxanthen-9-one dihydrochloride·1/2 hydrate] | – | 1.0 g | 0 | – | Drug Deaths [1, 3]: 4/5; Drug Deaths [1, 4]: 0; Weight Loss [1, 4]: 1.0 g; Weight Loss ([1]; mouse, in vivo, iv): 2.2 g
CN(C)CCNc1ccc(CNS(C)(=O)=O)c2sc3ccccc3c(=O)c12.CS(=O)(=O)O [18(f), N-[[1-[[2-(Dimethylamino)ethyl]amino]-9-oxothioxanthen-4-yl]methyl]methanesulfonamide methanesulfonate] | – | 5.2 g | 2/5 | – | –
CNCc1ccc(NCCCN(C)C)c2c(=O)c3ccccc3sc12 [19(e), 1-[[3-(Dimethylamino)propyl]amino]-4-[(methylaminomethyl]thioxanthen-9-one dihydrochloride monohydrate] | 4 | – | 0 | 3.4 | –
CNCc1ccc(NCCN(C)C)c2c(=O)c3ccccc3sc12 [20(b), 1-[[2-(Dimethylamino)ethyl]amino]-4-[(methylamino)-methyl]thioxanthen-9-onedihydrochloride-5/4 hydrate] | 10 | – | 0 | 0.4 | –
CN(C)CCCNc1ccc(CNS(C)(=O)=O)c2sc3ccccc3c(=O)c12 [21(c), N-[[1-[[3-(Dimethylamino)propyl]amino]-9-oxothioxanthen-4-yl]methyl]methanesulfonamide methanesulfonate·1/2 hydrate] | 0 | – | 0 | 4.5 | –
CCN(CC)CCNc1ccc(C=Nc2ccccc2)c2sc3ccccc3c(=O)c12 [Example 1, 1-[[2-(Diethylamino)ethyl]amino]-4-(N-phenylformimidoyl)thioxanthen-9-one] | 0 | 1.6 g | 0 | – | –
CCN(CC)CCNc1ccc(CNC=O)c2sc3ccccc3c(=O)c12 [Example 2, N-[[1-[[2-(Diethylamino)ethyl]amino]-9-oxothioxanthen-4-yl]methyl]formamide] | 0 | 2.0 g | 0 | – | Drug Deaths [1, 3]: 0; T/C ([1]; iv): 0%; Weight Loss ([1]; mouse, in vivo, iv): 2.8 g
CCN(CC)CCNc1ccc(CN)c2sc3ccccc3c(=O)c12 [Example 4, 4-(Aminomethyl)-1-[[2-(diethylamino)ethyl]amino]-thioxanthen-9-one] | 0 | 0.4 g | 0 | – | –
CCN(CC)CCNc1ccc(C(N)=O)c2sc3ccccc3c(=O)c12 [Example 7, 1-[[2'-(Diethylamino)ethyl]amino]-9-oxothioxanthene-4-carboxamide] | – | 3.2 g | 1/5 | – | Drug Deaths [1, 3]: 0; Weight Loss ([1]; mouse, in vivo, iv): 0.6 g
CCN(CC)CCNc1ccc(CN(C)S(C)(=O)=O)c2sc3ccccc3c(=O)c12 [Example 8, N-[[1-[[2-(Diethylamino)ethyl)amino]-9-oxothioxanthen-yl]methyl]N-methylmethanesulfonamide] | 0 | – | 0 | 0.8 | –
CCN(CC)CCNc1ccc(CNS(=O)(=O)c2ccccc2)c2sc3ccccc3c(=O)c12 [Example 9, N-[[1-[[2-(Diethylamino)ethyl]amino]-9-oxothioxanthen-4-yl]methyl]phenylsulfonamide] | 8 | 1.6 g | 0 | – | –
CCN(CC)CCNc1ccc(CNC(=O)c2ccccc2)c2sc3ccccc3c(=O)c12 [Example 11, N-[[1-[[2-(Diethylamino)ethyl]amino]-9-oxothioxanthen-4-yl]methyl]benzamide] | 0 | 0.8 g | 0 | – | Drug Deaths [1, 6]: 0; Weight Loss [1, 6]: 0.8 g; Drug Deaths [1, 7]: 0; Weight Loss [1, 7]: 0.8 g; Drug Deaths [1, 8]: 0; Weight Loss [1, 8]: 2.0 g; T/C ([1]; ip): 39%; T/C ([1]; po): 0%
CCOP(=O)(NCc1ccc(NCCN(CC)CC)c2c(=O)c3ccccc3sc12)OCC [Example 12] | – | 3.2 g | 0 | – | –
CCNCc1ccc(NCCN(CC)CC)c2c(=O)c3ccccc3sc12 [Example 14, 1-[[2-(Diethylamino)ethyl]amino]-4-[(ethylamino)-methyl]thioxanthen-9-one] | 0 | 1.2 g | 0 | – | –
CCN(CC)CCNc1ccc(CN=CN(C)C)c2sc3ccccc3c(=O)c12 [Example 15, 1-[[2-(Diethylamino)]ethyl]amino]-4-(dimethylaminomethylene-aminomethyl)-thioxanthen-9-one trihydrochloride] | 0 | – | 0 | 2.0 | –
CCN(CC)CCNc1ccc(CN(C)S(=O)(=O)CC)c2sc3ccccc3c(=O)c12.CS(=O)(=O)O [Example 22, N-[[1-[[2-(Diethylamino)ethyl]amino]-9-oxothioxanthen-4-yl]methyl]-N-methyl-ethanesulfonamide methanesulfonate] | 0 | 3.2 g | 0 | – | –
CCN(CC)CCNc1ccc(CNS(=O)(=O)c2ccc(OC)cc2)c2sc3ccccc3c(=O)c12.CS(=O)(=O)O [Example 23, N-[[1-[[2-(Diethylamino)ethyl]amino]-9-oxothioxanthen-4-yl]methyl](p-methoxy)benzenesulfonamide methanesulfonate] | 20 | 2.4 g | 0 | – | –
CCN(CC)CCNc1ccc(CNS(=O)(=O)CC)c2sc3ccccc3c(=O)c12.CS(=O)(=O)O [Example 24, N-[[1-[[2-(Diethylamino)ethyl]amino]-9-oxothioxanthen-4-yl]methyl]ethanesulfonamide methanesulfonate] | 0 | 2.3 g | 0 | – | –
CCN(CC)CCNc1ccc(CNS(=O)(=O)c2ccc(Cl)c(Cl)c2)c2sc3ccccc3c(=O)c12 [Example 26, N-[[1-[[2-(Diethylamino)ethyl]amino]-9-oxothioxanthen-4-yl]methyl]-3,4-dichlorobenzenesulfonamide methanesulfonate·1/2 hydrate] | 13 | – | 0 | 2.2 | –
CCN(CC)CCNc1ccc(CNS(=O)(=O)c2ccccc2F)c2sc3ccccc3c(=O)c12 [Example 27, N-[[1-[[2-(Diethylamino)ethyl]amino]-9-oxothioxanthen-4-yl]methyl]-2-fluorobenzenesulfonamide] | 5 | +0.8 g | 0 | – | –
CCCN(Cc1ccc(NCCN(CC)CC)c2c(=O)c3ccccc3sc12)S(C)(=O)=O [Example 28, N-[[1-[[2-(Diethylamino)ethyl]amino]-9-oxothioxanthen-4-yl]methyl]-N-propyl-methanesulfonamide] | 0 | 2.8 g | 0 | – | –
CCN(CC)CCNc1ccc(CN(C)S(=O)(=O)c2ccccc2)c2sc3ccccc3c(=O)c12.CS(=O)(=O)O [Example 29, N-[[1-[[2-(Diethylamino)ethyl]amino]-9-oxothioxanthen-4-yl]methyl]-N-methyl-benzenesulfonamide methanesulfonate] | 6 | 2.4 g | 0 | – | –
CCN(CC)CCNc1ccc(CNS(C)(=O)=O)c2sc3ccc(Br)cc3c(=O)c12 [Example 33, N-[[1-[[2-(Diethylamino)ethyl]amino]-7-bromo-9-oxothioxanthen-4-yl]methyl]methanesulfonamide] | 28 | 2.0 g | 0 | – | –
CCN(CC)CCNc1ccc(CNS(C)(=O)=O)c2sc3ccc(O)cc3c(=O)c12 [Example 37, N-[[1-(2-Diethylamino)ethyl]amino]-7-hydroxy-9-oxothioxanthen-4-yl]methyl]methanesulfonamide·3/4 hydrate] | 7 | – | 0 | 0 | –
